Results taken from PubChem BioAssay (NCI).
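GI50 = concentration required for 50% inhibition of growth. At the TGI there is no net growth.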

Key:
Assay in all cases: inhibition of tumour cell growth, NCI panel, 384-well format; in the data active = GI50 below about 0.43 µM; inactive = the rest
[1] = tested on: NCI-H23 lung
[2] = tested on: HOP-62 NSCLC
[3] = tested on: OVCAR-8 ovarian
[4] = tested on: UACC-62 melanoma
[5] = tested on: U251 glioblastoma
[6] = tested on: OVCAR-5 ovarian
[7] = tested on: 786-0 renal
[8] = tested on: RXF 393 renal
[9] = tested on: MOLT-4 leukemia
[10] = tested on: M14 melanoma
[11] = tested on: ACHN renal
[12] = tested on: SF-295 CNS
[13] = tested on: DU-145 prostate
[14] = tested on: IGROV1 ovarian
[15] = tested on: HOP-92 NSCLC
[16] = tested on: HCT-116 colon
[17] = tested on: UACC-257 melanoma
[18] = tested on: SF-539 CNS
[19] = tested on: KM12 colon
[20] = tested on: HCC-2998 colon
[21] = tested on: SK-OV-3 ovarian
[22] = tested on: MDA-MB-468 breast
[23] = tested on: NCI-H322M lung
[24] = tested on: NCI-H460 NSCLC
[25] = tested on: SW-620 colon
[26] = tested on: TK-10 renal
[27] = tested on: MDA-MB-231 breast
[28] = tested on: SNB-75 CNS
[29] = tested on: SK-MEL-28 melanoma
[30] = tested on: CAKI-1 renal
[31] = tested on: BT-549 breast
[32] = tested on: T-47D breast
[33] = tested on: MALME-3M melanoma
[34] = tested on: SK-MEL-5 melanoma
[35] = tested on: HCT-15 colon
[36] = tested on: RPMI-8226 leukemia
[37] = tested on: A549 NSCLC
[38] = tested on: A498 renal
[39] = tested on: SNB-19 CNS
[40] = tested on: EKVX NSCLC
[41] = tested on: UO-31 renal
[42] = tested on: LOX IMVI melanoma
[43] = tested on: NCI-H226 lung
[44] = tested on: MCF7 breast
[45] = tested on: SR leukemia
[46] = tested on: OVCAR-3 ovarian
[47] = tested on: SF-268 CNS
[48] = tested on: MDA-MB-435 melanoma
[49] = tested on: COLO 205 colon
[50] = tested on: PC-3 prostate
[51] = tested on: NCI-H522 lung
[52] = tested on: OVCAR-4 ovarian
[53] = tested on: NCI/ADR-RES ovarian
[54] = tested on: HS 578T breast
[55] = tested on: SN12C renal
[56] = tested on: HT29 colon

Cn1cnc2c(F)c(Nc3ccc(Br)cc3Cl)c(C(=O)NOCCO)cc21
9.91 µM: TGI [1]
38.7 µM: TGI [43]
12.2 µM: TGI [16]
12.3 µM: TGI [8]
1.3 µM: TGI [20]
0.122 µM: TGI [49]
0.147 µM: TGI [29]
14.5 µM: TGI [15]
0.278 µM: TGI [17]
35.4 µM: TGI [38]
85.9 µM: TGI [28]
> 100 µM: TGI [2] | TGI [3] | TGI [5] | TGI [6] | TGI [7] | TGI [9] | TGI [11] | TGI [12] | TGI [13] | TGI [19] | TGI [21] | TGI [22] | TGI [23] | TGI [24] | TGI [25] | TGI [26] | TGI [30] | TGI [32] | TGI [35] | TGI [36] | TGI [37] | TGI [39] | TGI [40] | TGI [44] | TGI [45] | TGI [46] | TGI [47] | TGI [48] | TGI [50] | TGI [51] | TGI [52] | TGI [53] | TGI [54] | TGI [55] | TGI [56]
active: GI50 [1] 0.26 µM | GI50 [4] 0.0318 µM | GI50 [6] 0.205 µM | GI50 [8] 0.101 µM | GI50 [10] 0.0211 µM | GI50 [17] 0.0456 µM | GI50 [20] 0.0284 µM | GI50 [23] 0.363 µM | GI50 [25] 0.039 µM | GI50 [29] 0.0217 µM | GI50 [33] 0.0114 µM | GI50 [34] 0.0449 µM | GI50 [42] 0.425 µM | GI50 [43] 0.267 µM | GI50 [48] 0.266 µM | GI50 [49] 0.02 µM | GI50 [56] 0.0948 µM
13.5 µM: TGI [42]
21.2 µM: TGI [41]
17.3 µM: TGI [27]
47 µM: TGI [14]
56.5 µM: TGI [18]
0.144 µM: TGI [10]
inactive: GI50 [2] 1.22 µM | GI50 [3] 67.4 µM | GI50 [5] 19.5 µM | GI50 [7] 12.2 µM | GI50 [9] 49 µM | GI50 [11] 6.87 µM | GI50 [12] > 100 µM | GI50 [13] 42.4 µM | GI50 [14] 0.914 µM | GI50 [15] 2.08 µM | GI50 [16] 0.553 µM | GI50 [18] 12.2 µM | GI50 [19] 0.481 µM | GI50 [21] > 100 µM | GI50 [22] 55.3 µM | GI50 [24] > 100 µM | GI50 [26] 42.4 µM | GI50 [27] 1.06 µM | GI50 [28] 3.12 µM | GI50 [30] 1.73 µM | GI50 [31] 6.05 µM | GI50 [32] 84.8 µM | GI50 [35] 21.5 µM | GI50 [36] 21.1 µM | GI50 [37] 0.58 µM | GI50 [38] 3.46 µM | GI50 [39] 51.5 µM | GI50 [40] 18.6 µM | GI50 [41] 3.21 µM | GI50 [44] > 100 µM | GI50 [45] 47 µM | GI50 [46] 44.9 µM | GI50 [47] > 100 µM | GI50 [50] > 100 µM | GI50 [51] 42.8 µM | GI50 [52] 14.4 µM | GI50 [53] > 100 µM | GI50 [54] 17.5 µM | GI50 [55] 7.8 µM
52.1 µM: TGI [31]
0.311 µM: TGI [4]
0.0363 µM: TGI [33]
0.616 µM: TGI [34]
